In US8314126B2, “Disubstituted phenylpiperdines/piperazines as modulators of dopamine neurotransmission” (NSAB, Filial af Neurosearch Sweden AB, Sverige, priority 2004, dated 2012):

Assays:
[1] = Activity of compounds of Formula 1 (test not specified); conditions: test not stated
[2] = Oral bioavailability in rat; assay type: in vivo; conditions: plasma, 12.5 umol/kg, orally 12.5 μmol/kg vs intravenously 5 μmol/kg, ratio of AUC
Method: Experiments are performed 24 hours after implantation of arterial and venous catheters. Test compound is administered orally at 12.5 μmol/kg or intravenously at 5 μmol/kg using the venous catheters, n=3 per group. Arterial blood samples are then taken during six hours at 0, 3, 9, 27, 60, 120, 180, 240, 300 and, 360 minutes after administration of the test compound. The oral bioavailability was calculated as the ratio of the AUC (Area under curve) obtained after oral administration over the AUC obtained after intravenous administration for each rat. The parameter AUC was calculated according to the following: […]
AUC: the area under the plasma concentration versus time curve from time zero to the last concentration measured (Clast), calculated by the log/linear trapezoidal method.
The levels of test compound are measured by means of liquid chromatography-mass spectrometry (LC-MS) (Hewlett-Packard 1100MSD Series). The LC-MS module includes a quaternary pump system, vacuum degasser, thermostatted autosampler, thermostatted column compartment, diode array detector and API-ES spray chamber. Data handling was performed with a HP ChemStation rev.A.06.03. system. Instrument settings:MSD mode: Selected ion monitoring (SIM) MSD polarity: Positiv Gas temp: 350° C. Drying gas: 13.0 l/min Nebulizer gas: 50 psig Capillary voltage: 5000 V Fragment or voltage: 70 V
Analytical column: Zorbax eclipse XDB-C8 (4.6*150 mm, 5 μm) at 20° C. The mobile phase was acetic acid (0.03%) (solvent A) and acetonitrile (solvent B). The flow rate of the mobile phase was 0.8 ml/min. The elution was starting at 12% of solvent B isocratic for 4.5 min, then increasing linearity to 60% over 4.5 min.
Extractions procedure: Plasma samples (0.25-0.5 ml) were diluted with water to 1 ml, and 60 pmol (100 μl) internal standard (−)-OSU6241 was added. The pH was adjusted to 11 by the addition of 25 μl saturated Na2CO3. […] The selective ion (MH^+) was monitored for each Example, and MH^+ 296 for (−)-OSU6241 ((3-[3-(ethylsulfonyl)phenyl]-1-propylpiperidine). […]

[3] = Metabolic stability in rat liver microsomes; assay type: in vitro ADME; conditions: 15 minutes incubation at 37° C., NADPH
Method: Rat liver microsomes were isolated as described by Forlin (1980) Tox Appl Pharm. 54(3) 420-430, with minor modifications e.g. 3 mL/g liver of a 0.1 M Na/K*PO4 buffer with 0.15M KCl, pH 7.4, (buffer 1) was added before homogenisation, the homogenate was centrifuged for 20 minutes instead of 15, the supernatant was ultracentrifuged at 100.000 g instead of 105.000 g and the pellet from the ultracentrifugation was resuspended in 1 mL/g liver of 20% v/v 87% glycerol in buffer 1.
1 μL of, 0.2 or 1 mM test substance diluted in water, and 10 μL 20 mg/mL rat liver microsome were mixed with 149 μL, 37° C. buffer 1 and the reaction was started by addition of 40 μL 4.1 mg/mL NADPH. After 0 or 15 minutes incubation at 37° C. in a heating block (LAB-LINE, MULTI-BLOK Heater or lab4you, TS-100 Thermo shaker at 700 rpm) the reaction was stopped by addition of 100 μL pure acetonitrile. […] The test compound was analysed using HPLC-MS (Hewlett-Packard 1100MSD Series) with a Zorbax SB-C18 column (2.1*150 mm, 5 μm) using 0.03% formic acid and acetonitrile as mobile phase (gradient) or a Zorbax Eclipse XDB-C18 (3*75 mm, 3.5 μm) using 0.03% acetic acid and acetonitrile as mobile phase (gradient). The 15 mM turnover was calculated as the fraction of test compound eliminated after 15 minutes, expressed in percent of 0 mM levels, i.e. 100*[conc test compound at 0 mM—concentration at 15 min]/cone at 0 mM. […]

[4] = system: levels of dopamine and norepinephrine in the cortex; test: Microdialysis in awake and freely moving rats, cortex; assay type: in vivo, rat
Method: Remeron is injected (s.c.) at time-point 0. The values depicted in the graph represent percent of control in relation to baseline values. The microdialysis was performed in awake and freely moving rats. Error-bars=SEM
Example 2 is injected (s.c.) at time-point 0. The values depicted in the graph represent percent of control in relation to baseline values. The microdialysis was performed in awake and freely moving rats. Error-bars=SEM
Male Sprague-Dawley rats weighing 220-320 g were used throughout the experiments. Before the experiment the animals were group housed, five animals in each cage, with free access to water and food. The animals were housed at least one week after arrival prior to surgery and use in the experiments. Each rat was used only once for microdialysis.
We use a modified version (Waters, Lofberg et al. 1994) of the I-shaped probe (Santiago and Westerink 1990). […] Co-ordinates were calculated relative to bregma; dorsal striatum AP +1, ML ±2.6, DV −6.3; Pf cortex, AP +3.2, 8° ML ±1.2, DV −4.0 according to (Paxinos and Watson 1986). […]
30 μl of each sample was injected into the chromatograph. […] The currents generated by the two EC detectors are converted to digital data and evaluated using Chromelion software (Dionex, Sunnyvale, Calif.) on a PC. The method sample turn over time was 4.5 min and two parallel experiments are normally analysed simultaneously on the system. […]

MK-801 pre-treated rats = test: Locomotor activity in MK-801 pre-treated rats; conditions: MK-801 0.7 mg/kg i.p. alone, recorded between 30 and 60 minutes, ± SEM

## CCCN1CCC(c2cccc(S(C)(=O)=O)c2C(F)(F)F)CC1 [4-[3-(methylsulfonyl)-2-(trifluoromethyl)phenyl]-1-propylpiperidine]
[1]
  activity: inactive

## CCCN1CCC(c2cccc(S(C)(=O)=O)c2F)CC1 [Example 1, 4-[2-FLUORO-3-(METHYLSULFONYL)PHENYL]-1-PROPYLPIPERIDINE]
[2]
  bioavailability: ~100%

## CCN1CCC(c2cccc(S(C)(=O)=O)c2F)CC1 [Example 2, 1-ETHYL-4-[2-FLUORO-3-(METHYLSULFONYL)PHENYL]-PIPERIDINE]
[3]
  turnover at 15 minutes: 1%
[2]
  bioavailability: 87%
[4]; 50 μmol/kg s.c., pf. cortex, FIG. 2
  levels of dopamine and norepinephrine in the cortex: elevate the levels of dopamine and norepinephrine in the cortex

## CCCN1CCC(c2cccc(C(F)(F)F)c2C#N)CC1 [Example 7, 2-(1-PROPYLPIPERIDIN-4-YL)-6-(TRIFLUOROMETHYL)BENZONITRILE]
[2]
  bioavailability: 29%

## C[C@]12N[C@H](Cc3ccccc31)c1ccccc12 [MK-801]
MK-801 pre-treated rats
  Locomotor activity, MK-801: 51333 ± 2148 counts/30 min

## CN1CCN2c3ncccc3Cc3ccccc3C2C1 (centres unmarked) [mirtazapine, reference compound]
[4]; 10 mg/kg s.c., cortex, FIG. 1
  extracellular norepinephrine and dopamine in the cortex: increase predominantly extracellullar norepinephrine and dopamine in the cortex
